Biological target: human GPR17 short isoform (Homo sapiens (Human), UniProt Q13304)
Assay: GPR17 cAMP assay (hGPR17 cAMP, antagonist mode against EC80 of MDL29,951)
Format: cell-based
Details: CHO-K1 cells stably expressing human GPR17 short isoform; EC80 of agonist MDL29,951; forskolin 15 μM
In short: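 cAMP was read by competitive TR-FRET after a 30 min room-temperature stimulation: antagonists plus EC80 MDL29,951 and 0.5 mM IBMX, followed 5 min later by 15 μM forskolin. Cells were CHO-K1 with stable human GPR17 short isoform in HBSS/HEPES/BSA, pH 7.4; percent activity versus reference antagonist fitted sigmoidally.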

Sequence of human GPR17 short isoform (Q13304 29-367): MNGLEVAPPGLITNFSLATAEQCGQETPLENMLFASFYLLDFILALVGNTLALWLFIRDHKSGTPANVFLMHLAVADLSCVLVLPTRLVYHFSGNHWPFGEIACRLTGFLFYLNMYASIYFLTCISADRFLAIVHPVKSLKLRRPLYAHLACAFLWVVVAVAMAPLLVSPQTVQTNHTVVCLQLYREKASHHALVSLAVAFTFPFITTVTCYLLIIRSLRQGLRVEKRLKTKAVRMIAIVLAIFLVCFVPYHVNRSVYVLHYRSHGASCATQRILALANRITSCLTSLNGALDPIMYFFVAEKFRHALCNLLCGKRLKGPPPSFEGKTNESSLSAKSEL

| IC50 [nM] | Structure (SMILES) |
| --- | --- |
| 54 | COc1nc(NS(=O)(=O)c2c[nH]c3cc(C(F)F)ccc23)ncc1CC(F)F [Example 195, N-[5-(2,2-difluoroethyl)-4-methoxy-pyrimidin-2-yl]-6-(difluoromethyl)-1H-indole-3-sulfonamide] |
| 16 | COc1nc(NS(=O)(=O)c2c[nH]c3c(OC)c(Br)ccc23)ncc1CC(F)F [Example 196, 6-bromo-N-[5-(2,2-difluoroethyl)-4-methoxy-pyrimidin-2-yl]-7-methoxy-1H-indole-3-sulfonamide] |
| 981 | COc1nc(NS(=O)(=O)c2c[nH]c3cc(CC#N)ccc23)ncc1CC(F)F [Example 197, 6-(cyanomethyl)-N-[5-(2,2-difluoroethyl)-4-methoxy-pyrimidin-2-yl]-1H-indole-3-sulfonamide] |
| 36 | COc1nc(NS(=O)(=O)c2c[nH]c3c(OCF)c(Cl)ccc23)ncc1CC(F)F [Example 198, 6-chloro-N-[5-(2,2-difluoroethyl)-4-methoxy-pyrimidin-2-yl]-7-(fluoromethoxy)-1H-indole-3-sulfonamide] |
| 8 | COc1nc(NS(=O)(=O)c2c[nH]c3c(SC(F)F)c(Cl)ccc23)ncc1CC(F)F [Example 199, 6-chloro-N-[5-(2,2-difluoroethyl)-4-methoxy-pyrimidin-2-yl]-7-(difluoromethylsulfanyl)-1H-indole-3-sulfonamide] |
| 66 | COc1nc(NS(=O)(=O)c2c[nH]c3nc(Br)ccc23)ncc1CC(F)F [Example 200, 6-bromo-N-[5-(2,2-difluoroethyl)-4-methoxy-pyrimidin-2-yl]-1H-pyrrolo[2,3-b]pyridine-3-sulfonamide] |
| 30 | COc1nc(NS(=O)(=O)c2c[nH]c3nc(Br)ccc23)ncc1CCC(F)F [Example 201, 6-bromo-N-[5-(3,3-difluoropropyl)-4-methoxy-pyrimidin-2-yl]-1H-pyrrolo[2,3-b]pyridine-3-sulfonamide] |
| 28 | COc1nc(NS(=O)(=O)c2c[nH]c3nc(Br)ccc23)nc(OC)c1OCC(F)F [Example 202, 6-bromo-N-[5-(2,2-difluoroethoxy)-4,6-dimethoxy-pyrimidin-2-yl]-1H-pyrrolo[2,3-b]pyridine-3-sulfonamide] |
| 127 | COc1nc(NS(=O)(=O)c2c[nH]c3nc(Cl)ccc23)ncc1CC(F)F [Example 203, 6-chloro-N-[5-(2,2-difluoroethyl)-4-methoxy-pyrimidin-2-yl]-1H-pyrrolo[2,3-b]pyridine-3-sulfonamide] |
| 29 | COc1nc(NS(=O)(=O)c2c[nH]c3nc(Cl)ccc23)ncc1CCC(F)F [Example 204, 6-chloro-N-[5-(3,3-difluoropropyl)-4-methoxy-pyrimidin-2-yl]-1H-pyrrolo[2,3-b]pyridine-3-sulfonamide] |
| 49 | COc1nc(NS(=O)(=O)c2c[nH]c3nc(Cl)ccc23)nc(OC)c1OC(F)F [Example 205, 6-chloro-N-[5-(difluoromethoxy)-4,6-dimethoxy-pyrimidin-2-yl]-1H-pyrrolo[2,3-b]pyridine-3-sulfonamide] |
| 57 | COc1nc(NS(=O)(=O)c2c[nH]c3nc(Cl)ccc23)nc(OC)c1OCC(F)F [Example 206, 6-chloro-N-[5-(2,2-difluoroethoxy)-4,6-dimethoxy-pyrimidin-2-yl]-1H-pyrrolo[2,3-b]pyridine-3-sulfonamide] |
| 14 | COc1nc(NS(=O)(=O)c2c[nH]c3c(F)c(Cl)ccc23)ncc1CCC(F)F [Example 207, 6-chloro-N-[5-(3,3-difluoropropyl)-4-methoxy-pyrimidin-2-yl]-7-fluoro-1H-indole-3-sulfonamide] |
| 25 | COc1nc(NS(=O)(=O)c2c[nH]c3c(F)c(Cl)ccc23)nc(OC)c1OCC(F)F [Example 208, 6-chloro-N-[5-(2,2-difluoroethoxy)-4,6-dimethoxy-pyrimidin-2-yl]-7-fluoro-1H-indole-3-sulfonamide] |
| 68 | COc1nc(NS(=O)(=O)c2c[nH]c3c(C(F)F)c(Cl)ccc23)ncc1CCC(F)F [Example 209, 6-chloro-7-(difluoromethyl)-N-[5-(3,3-difluoropropyl)-4-methoxy-pyrimidin-2-yl]-1H-indole-3-sulfonamide] |
| 18 | COc1nc(NS(=O)(=O)c2c[nH]c3c(Cl)c(Cl)ccc23)ncc1CC(F)F [Example 210, 6,7-dichloro-N-[5-(2,2-difluoroethyl)-4-methoxy-pyrimidin-2-yl]-1H-indole-3-sulfonamide] |
| 30 | COc1nc(NS(=O)(=O)c2c[nH]c3c(Cl)c(Cl)ccc23)ncc1CCC(F)F [Example 211, 6,7-dichloro-N-[5-(3,3-difluoropropyl)-4-methoxy-pyrimidin-2-yl]-1H-indole-3-sulfonamide] |
| 45 | COc1nc(NS(=O)(=O)c2c[nH]c3c(OC4CC4)c(Cl)ccc23)ncc1CCC(F)F [Example 212, 6-chloro-7-(cyclopropoxy)-N-[5-(3,3-difluoropropyl)-4-methoxy-pyrimidin-2-yl]-1H-indole-3-sulfonamide] |

| IC50 [nM] | Structure (SMILES) |
| --- | --- |
| 34 | COc1nc(NS(=O)(=O)c2c[nH]c3c(F)c(Br)ccc23)ncc1OCCF [Example 213, 6-bromo-7-fluoro-N-[5-(2-fluoroethoxy)-4-methoxy-pyrimidin-2-yl]-1h-indole-3-sulfonamide] |
| 38 | COc1nc(NS(=O)(=O)c2c[nH]c3c(C(F)F)c(Cl)ccc23)ncc1CC(F)F [Example 214, 6-chloro-N-[5-(2,2-difluoroethyl)-4-methoxy-pyrimidin-2-yl]-7-(difluoromethyl)-1H-indole-3-sulfonamide] |
| 28 | COc1nc(NS(=O)(=O)c2c[nH]c3c(F)c(Cl)ccc23)ncc1OC(F)(F)CF [Example 215, 6-chloro-7-fluoro-N-[4-methoxy-5-(1,1,2-trifluoroethoxy)pyrimidin-2-yl]-1H-indole-3-sulfonamide] |
| 43 | COc1nc(NS(=O)(=O)c2c[nH]c3c(F)c(Cl)ccc23)ncc1CCC#N [Example 216, 6-chloro-N-[5-(2-cyanoethyl)-4-methoxy-pyrimidin-2-yl]-7-fluoro-1H-indole-3-sulfonamide] |
| 17 | COc1nc(NS(=O)(=O)c2c[nH]c3c(F)c(Cl)ccc23)nc(OC)c1CC(F)F [Example 217, 6-chloro-N-[5-(2,2-difluoroethyl)-4,6-dimethoxy-pyrimidin-2-yl]-7-fluoro-1H-indole-3-sulfonamide] |
| 14 | COc1nc(NS(=O)(=O)c2c[nH]c3c(F)c(Cl)ccc23)nc(OC)c1CCC#N [Example 218, 6-chloro-N-[5-(2-cyanoethyl)-4,6-dimethoxy-pyrimidin-2-yl]-7-fluoro-1H-indole-3-sulfonamide] |
| 18 | COc1nc(NS(=O)(=O)c2c[nH]c3c(F)c(Cl)ccc23)nc(OC)c1OCC#N [Example 219, 6-chloro-N-[5-(cyanomethoxy)-4,6-dimethoxy-pyrimidin-2-yl]-7-fluoro-1H-indole-3-sulfonamide] |
| 27 | COc1nc(NS(=O)(=O)c2c[nH]c3nc(Cl)ccc23)ncc1OC(F)(F)CF [Example 220, 6-chloro-N-[4-methoxy-5-(1,1,2-trifluoroethoxy)pyrimidin-2-yl]-1H-pyrrolo[2,3-b]pyridine-3-sulfonamide] |
| 65 | COc1nc(NS(=O)(=O)c2c[nH]c3nc(Cl)ccc23)nc(OC)c1OCCF [Example 221, 6-chloro-N-[5-(2-fluoroethoxy)-4,6-dimethoxy-pyrimidin-2-yl]-1H-pyrrolo[2,3-b]pyridine-3-sulfonamide] |
| 291 | COc1nc(NS(=O)(=O)c2c[nH]c3c2ccc2cccnc23)ncc1CC(F)F [Example 222, N-[5-(2,2-difluoroethyl)-4-methoxy-pyrimidin-2-yl]-1H-pyrrolo[3,2-h]quinoline-3-sulfonamide] |
| 40 | COc1nc(NS(=O)(=O)c2c[nH]c3c(C#N)c(Cl)ccc23)ncc1CC(F)F [Example 223, 6-chloro-7-cyano-N-[5-(2,2-difluoroethyl)-4-methoxy-pyrimidin-2-yl]-1H-indole-3-sulfonamide] |
| 25 | COc1nc(NS(=O)(=O)c2c[nH]c3c(C#N)c(Cl)ccc23)nc(OC)c1OC(F)F [Example 224, 6-chloro-7-cyano-N-[5-(difluoromethoxy)-4,6-dimethoxy-pyrimidin-2-yl]-1H-indole-3-sulfonamide] |
| 27 | COc1nc(NS(=O)(=O)c2c[nH]c3c4c(ccc23)COC4)nc(OC)c1CC(F)F [Example 229, N-[5-(2,2-difluoroethyl)-4,6-dimethoxy-pyrimidin-2-yl]-6,8-dihydro-1H-fur[3,4-g]indole-3-sulfonamide] |
| 41 | COc1nc(NS(=O)(=O)c2c[nH]c3nc(Br)ccc23)ncc1OCCF [Example 230, 6-bromo-N-[5-(2-fluoroethoxy)-4-methoxy-pyrimidin-2-yl]-1H-pyrrolo[2,3-b]pyridine-3-sulfonamide] |
| 21 | COc1nc(NS(=O)(=O)c2c[nH]c3nc(Br)ccc23)ncc1OC(F)(F)CF [Example 231, 6-bromo-N-[4-methoxy-5-(1,1,2-trifluoroethoxy)pyrimidin-2-yl]-1H-pyrrolo[2,3-b]pyridine-3-sulfonamide] |
| 35 | COc1nc(NS(=O)(=O)c2c[nH]c3c(CC#N)c(Cl)ccc23)ncc1CC(F)F [Example 232, 6-chloro-7-(cyanomethyl)-N-[5-(2,2-difluoroethyl)-4-methoxy-pyrimidin-2-yl]-1H-indole-3-sulfonamide] |
| 202 | COc1nc(NS(=O)(=O)c2c[nH]c3c(C4CC4)c(Cl)ccc23)ncc1CC(F)F [Example 233, 6-chloro-7-cyclopropyl-N-[5-(2,2-difluoroethyl)-4-methoxy-pyrimidin-2-yl]-1H-indole-3-sulfonamide] |
| 16 | COc1nc(NS(=O)(=O)c2c[nH]c3c(SC)c(Cl)ccc23)ncc1CC(F)F [Example 234, 6-chloro-N-[5-(2,2-difluoroethyl)-4-methoxy-pyrimidin-2-yl]-7-(methylthio)-1H-indole-3-sulfonamide] |

From patent US20240025883A1, “PYRIMIDIN-2-YL SULFONAMIDE DERIVATIVES” (Hoffmann-La Roche Inc., priority 2021, published 2024)
